Tested on: human umbilical vein endothelial cells (HUVEC)
Experiment: HUVEC proliferation assay (VEGF-stimulated, MTT);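 for % inhibition of the proliferation of HUVEC: relative to VEGF-stimulated control minus starvation-medium baseline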
Assay type: cell-based
Conditions: crude reaction mixtures; for % inhibition: Library III, HUVEC proliferation, nominal concentration of 0.5 nM
Procedure: HUVEC Proliferation Assay
This assay determines the ability of a test compound to inhibit the growth factor-stimulated proliferation of human umbilical vein endothelial cells (“HUVEC”). HUVEC cells (passage 3-4, Clonetics, Corp.) were thawed into EGM2 culture medium (Clonetics Corp) in T75 flasks. Fresh EGM2 medium was added to the flasks 24 hours later. Four or five days later, cells were exposed to another culture medium (F12K medium supplemented with 10% fetal bovine serum (FBS), 60 μg/mL endothelial cell growth supplement (ECGS), and 0.1 mg/mL heparin). Exponentially-growing HUVEC cells were used in experiments thereafter. Ten to twelve thousand HUVEC cells were plated in 96-well dishes in 100 μl of rich, culture medium (described above). The cells were allowed to attach for 24 hours in this medium. The medium was then removed by aspiration and 105 μl of starvation media (F12K+1% FBS) was added to each well. After 24 hours, 15 μl of test agent dissolved in 1% DMSO in starvation medium or this vehicle alone was added into each treatment well; the final DMSO concentration was 0.1%. One hour later, 30 μl of VEGF (30 ng/mL) in starvation media was added to all wells except those containing untreated controls; the final VEGF concentration was 6 ng/mL. Cellular proliferation was quantified 72 hours later by MTT dye reduction, at which time cells were exposed for 4 hours MTT (Promega Corp.).
For screening compound library plates, one or two concentrations (one well per concentration) were employed, and the % inhibition was calculated by the following formula:
% inhibition=(control−test)÷(control−starvation)
% inhibition=(control-treated)/(control-starvation)×100

[1] = Library I, Y = CO, nominal concentration of 10 nM
[2] = Library I, Y = NH, nominal concentration of 10 nM
[3] = Library I, Y = O, nominal concentration of 10 nM
[4] = Library II, Y=S, 0.5 mM (column head; text: nominal 0.5 nM)
[5] = Library II, Y=S, 2 mM (column head; text: nominal 2 nM)

SMILES	% inhibition [%]	further results
CCc1ccc(CCNC(=O)c2ccccc2Sc2ccc3c(/C=C/c4ccccn4)n[nH]c3c2)cc1	−11	
CCc1cccc(CC)c1NC(=O)c1ccccc1Sc1ccc2c(/C=C/c3ccccn3)n[nH]c2c1	−17	
O=C(Nc1c(F)cccc1F)c1ccccc1Sc1ccc2c(/C=C/c3ccccn3)n[nH]c2c1	−31	
O=C(NCc1cc(F)ccc1F)c1ccccc1Sc1ccc2c(/C=C/c3ccccn3)n[nH]c2c1	15	
CCOC(=O)N1CCC(NC(=O)c2ccccc2Sc2ccc3c(/C=C/c4ccccn4)n[nH]c3c2)CC1	−24	
O=C(Nc1ncnc2[nH]cnc12)c1ccc2c(-c3nc4ccccc4[nH]3)n[nH]c2c1 [drawing 600]		% inhibition of the proliferation of HUVEC [1]: 27%; % inhibition of the proliferation of HUVEC [2]: −9%; % inhibition of the proliferation of HUVEC [3]: 52%
Cc1cccnc1NC(=O)c1ccccc1Sc1ccc2c(/C=C/c3ccccn3)n[nH]c2c1	−18	
CSc1ccccc1NC(=O)c1ccccc1Sc1ccc2c(/C=C/c3ccccn3)n[nH]c2c1	−10	
CC(C)(C)c1ccc(NC(=O)c2ccccc2Sc2ccc3c(/C=C/c4ccccn4)n[nH]c3c2)cc1	−1	
CC(C)c1cccc(C(C)C)c1NC(=O)c1ccccc1Sc1ccc2c(/C=C/c3ccccn3)n[nH]c2c1	−7	
COC(=O)c1sccc1NC(=O)c1ccccc1Sc1ccc2c(/C=C/c3ccccn3)n[nH]c2c1	2	
CCOC(=O)CNC(=O)c1ccccc1Sc1ccc2c(/C=C/c3ccccn3)n[nH]c2c1	−16	
O=C(Nc1ccc(Cl)cn1)c1ccccc1Sc1ccc2c(/C=C/c3ccccn3)n[nH]c2c1	−23	
COc1ccc(OC)c(NC(=O)c2ccccc2Sc2ccc3c(/C=C/c4ccccn4)n[nH]c3c2)c1	−5	
O=C(NCc1ccc2c(c1)CCO2)c1ccccc1Sc1ccc2c(/C=C/c3ccccn3)n[nH]c2c1	14	
Nc1cccc(F)c1CNC(=O)c1ccccc1Sc1ccc2c(/C=C/c3ccccn3)n[nH]c2c1	11	
CN(C)c1ccc(CNC(=O)c2ccccc2Sc2ccc3c(/C=C/c4ccccn4)n[nH]c3c2)cc1		% inhibition of the proliferation of HUVEC [4]: 32%; % inhibition of the proliferation of HUVEC [5]: 24%
Cc1cccc(CNC(=O)c2ccccc2Sc2ccc3c(/C=C/c4ccccn4)n[nH]c3c2)c1C	13	
O=C(Nc1ccc(Cl)cc1)c1ccccc1Sc1ccc2c(/C=C/c3ccccn3)n[nH]c2c1	−12	
CC(=O)N1CCN(C(=O)c2ccc3c(-c4nc5ccccc5[nH]4)n[nH]c3c2)CC1		% inhibition of the proliferation of HUVEC [1]: 5%; % inhibition of the proliferation of HUVEC [2]: 7%; % inhibition of the proliferation of HUVEC [3]: 23%
O=C(Nc1ccc(O)cc1)c1ccc2c(-c3nc4ccccc4[nH]3)n[nH]c2c1 [drawing 585]		% inhibition of the proliferation of HUVEC [1]: 33%; % inhibition of the proliferation of HUVEC [2]: 3%; % inhibition of the proliferation of HUVEC [3]: 32%

SMILES	% inhibition [%]	further results
N#CCc1ccc(NC(=O)c2ccccc2Sc2ccc3c(/C=C/c4ccccn4)n[nH]c3c2)cc1	−13	
O=C1CSC(NC(=O)c2ccccc2Sc2ccc3c(/C=C/c4ccccn4)n[nH]c3c2)=N1		% inhibition of the proliferation of HUVEC [4]: 9%; % inhibition of the proliferation of HUVEC [5]: −9%
O=C(Nc1ccc(C2CCCCC2)cc1)c1ccccc1Sc1ccc2c(/C=C/c3ccccn3)n[nH]c2c1	1	
O=C(Nc1ccc2ccccc2n1)c1ccccc1Sc1ccc2c(/C=C/c3ccccn3)n[nH]c2c1	18	
O=C(NC1CCOC1=O)c1ccccc1Sc1ccc2c(/C=C/c3ccccn3)n[nH]c2c1 (centres unmarked)	3	
COC(=O)c1nccnc1NC(=O)c1ccccc1Sc1ccc2c(/C=C/c3ccccn3)n[nH]c2c1	7	
COc1ccc(NC(=O)c2ccccc2Sc2ccc3c(/C=C/c4ccccn4)n[nH]c3c2)cn1	−20	
CC(C)CCC(C)NC(=O)c1ccccc1Sc1ccc2c(/C=C/c3ccccn3)n[nH]c2c1 (centres unmarked)		% inhibition of the proliferation of HUVEC [4]: 6%; % inhibition of the proliferation of HUVEC [5]: 44%
Nc1nc(NC(=O)c2ccccc2Sc2ccc3c(/C=C/c4ccccn4)n[nH]c3c2)n[nH]1		% inhibition of the proliferation of HUVEC [4]: −6%; % inhibition of the proliferation of HUVEC [5]: 41%
O=C(NCCN1CCNC1=O)c1ccccc1Sc1ccc2c(/C=C/c3ccccn3)n[nH]c2c1		% inhibition of the proliferation of HUVEC [4]: 5%; % inhibition of the proliferation of HUVEC [5]: 1%
CSc1nc(NC(=O)c2ccccc2Sc2ccc3c(/C=C/c4ccccn4)n[nH]c3c2)ns1	−27	
CN(C)C(=O)c1ccc2c(-c3nc4ccccc4[nH]3)n[nH]c2c1		% inhibition of the proliferation of HUVEC [1]: 35%; % inhibition of the proliferation of HUVEC [2]: −9%; % inhibition of the proliferation of HUVEC [3]: 42%
C[n+]1ccc(NC(=O)c2ccccc2Sc2ccc3c(/C=C/c4ccccn4)n[nH]c3c2)cc1	0	
CCC(CC)CCCC(C)NC(=O)c1ccccc1Sc1ccc2c(/C=C/c3ccccn3)n[nH]c2c1 (centres unmarked)		% inhibition of the proliferation of HUVEC [4]: 3%; % inhibition of the proliferation of HUVEC [5]: 15%
N=C(N)CNC(=O)c1ccccc1Sc1ccc2c(/C=C/c3ccccn3)n[nH]c2c1		% inhibition of the proliferation of HUVEC [4]: 7%; % inhibition of the proliferation of HUVEC [5]: −1%
NS(=O)(=O)c1ccc(CCNC(=O)c2ccccc2Sc2ccc3c(/C=C/c4ccccn4)n[nH]c3c2)cc1		% inhibition of the proliferation of HUVEC [4]: 26%; % inhibition of the proliferation of HUVEC [5]: 37%
O=C(NC(CO)CC1CCCCC1)c1ccccc1Sc1ccc2c(C=Cc3ccccn3)n[nH]c2c1 (centres unmarked)	13	
CCCCC(CC)NC(=O)c1ccccc1Sc1ccc2c(/C=C/c3ccccn3)n[nH]c2c1 (centres unmarked)		% inhibition of the proliferation of HUVEC [4]: 31%; % inhibition of the proliferation of HUVEC [5]: 30%
O=C(Nc1cc(O)nc(O)n1)c1ccccc1Sc1ccc2c(/C=C/c3ccccn3)n[nH]c2c1	3	
CC(=O)Nc1ccc(NC(=O)c2ccccc2Sc2ccc3c(/C=C/c4ccccn4)n[nH]c3c2)cc1	−4	
CCOC(=O)c1ccc(NC(=O)c2ccccc2Sc2ccc3c(/C=C/c4ccccn4)n[nH]c3c2)cc1	−25	

SMILES	% inhibition [%]	further results
CS(=O)(=O)NNC(=O)c1ccccc1Sc1ccc2c(/C=C/c3ccccn3)n[nH]c2c1		% inhibition of the proliferation of HUVEC [4]: 9%; % inhibition of the proliferation of HUVEC [5]: 1%
CCc1ccc(C)nc1NC(=O)c1ccccc1Sc1ccc2c(/C=C/c3ccccn3)n[nH]c2c1	−23	
O=C(Nc1cccnc1Cl)c1ccccc1Sc1ccc2c(/C=C/c3ccccn3)n[nH]c2c1	2	
CCSc1nnc(NC(=O)c2ccccc2Sc2ccc3c(/C=C/c4ccccn4)n[nH]c3c2)s1	17	
O=C(O)CNC(=O)c1ccccc1Sc1ccc2c(/C=C/c3ccccn3)n[nH]c2c1		% inhibition of the proliferation of HUVEC [4]: 8%; % inhibition of the proliferation of HUVEC [5]: 23%
CN(CCO)C(=O)c1ccc2c(-c3nc4ccccc4[nH]3)n[nH]c2c1		% inhibition of the proliferation of HUVEC [1]: 27%; % inhibition of the proliferation of HUVEC [2]: −8%; % inhibition of the proliferation of HUVEC [3]: 48%
O=C(NC[C@@H]1CCCO1)c1ccccc1Sc1ccc2c(/C=C/c3ccccn3)n[nH]c2c1	−11	
O=C(Nc1ccc2c(c1)OCCO2)c1ccccc1Sc1ccc2c(/C=C/c3ccccn3)n[nH]c2c1	−1	
O=C(Nc1ccc2[nH]ccc2c1)c1ccccc1Sc1ccc2c(/C=C/c3ccccn3)n[nH]c2c1	43	
CC(C)CC(CO)NC(=O)c1ccccc1Sc1ccc2c(C=Cc3ccccn3)n[nH]c2c1 (centres unmarked) [drawing 1015]		% inhibition (0.0005 µM): −13%
Cc1nnc(NC(=O)c2ccccc2Sc2ccc3c(/C=C/c4ccccn4)n[nH]c3c2)nc1C	−20	
COC(=O)c1ccc(NC(=O)c2ccccc2Sc2ccc3c(/C=C/c4ccccn4)n[nH]c3c2)o1	−1	
O=C(Nc1ccccc1O)c1ccccc1Sc1ccc2c(/C=C/c3ccccn3)n[nH]c2c1	13	
O=C(Nc1ccc(O)c(Cl)c1)c1ccccc1Sc1ccc2c(/C=C/c3ccccn3)n[nH]c2c1	−19	
CSc1cccc(NC(=O)c2ccccc2Sc2ccc3c(/C=C/c4ccccn4)n[nH]c3c2)c1	8	
O=C(Nc1cccc2cccnc12)c1ccccc1Sc1ccc2c(/C=C/c3ccccn3)n[nH]c2c1	3	
O=C(Nc1ccc2cn[nH]c2c1)c1ccccc1Sc1ccc2c(/C=C/c3ccccn3)n[nH]c2c1	7	
O=C(NCCCN(CCO)CCO)c1ccccc1Sc1ccc2c(/C=C/c3ccccn3)n[nH]c2c1		% inhibition of the proliferation of HUVEC [4]: 4%; % inhibition of the proliferation of HUVEC [5]: 4%
CS(=O)(=O)c1ccc(NC(=O)c2ccccc2Sc2ccc3c(/C=C/c4ccccn4)n[nH]c3c2)cc1	19	
O=C(NCC1CC1)c1ccccc1Sc1ccc2c(/C=C/c3ccccn3)n[nH]c2c1 [drawing 758]		% inhibition of the proliferation of HUVEC [4]: 35%; % inhibition of the proliferation of HUVEC [5]: 69%
CCC(CO)(CO)NC(=O)c1ccccc1Sc1ccc2c(/C=C/c3ccccn3)n[nH]c2c1	61	

— patent US6534524B1, “Indazole compounds and pharmaceutical compositions for inhibiting protein kinases, and methods for their use” (Agouron Pharmaceuticals, Inc., priority 1999, dated 2003)
